Measured values taken from patent US12473304B2, “Heterocyclic PAD4 inhibitors” (BRISTOL-MYERS SQUIBB COMPANY, priority 2020, dated 2025).

Target: human PAD4 (hPAD4) (Homo sapiens (Human), UniProt Q9UM07)
Test: RFMS Human PAD4 Functional Assay 1
Type: biochemical
Settings: RFMS assay 1; 5 nM hPAD4, 250 μM BAEE substrate, 50 μM calcium, 37° C.
Summary of the method: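 Citrullination product read by RapidFire triple-quad MRM against a modified-citrulline internal standard, after TCA stop and 30 min phenyl glyoxal step at 37 °C. Reaction: 250 μM BAEE, 5 nM human PAD4, 90 min at 37 °C, pH 7.5 HEPES buffer with 50 μM calcium and 5 μM TPEN, following 30 min compound–enzyme preincubation (max 50 μM).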

human PAD4 (hPAD4), sequence (Q9UM07 whole entry): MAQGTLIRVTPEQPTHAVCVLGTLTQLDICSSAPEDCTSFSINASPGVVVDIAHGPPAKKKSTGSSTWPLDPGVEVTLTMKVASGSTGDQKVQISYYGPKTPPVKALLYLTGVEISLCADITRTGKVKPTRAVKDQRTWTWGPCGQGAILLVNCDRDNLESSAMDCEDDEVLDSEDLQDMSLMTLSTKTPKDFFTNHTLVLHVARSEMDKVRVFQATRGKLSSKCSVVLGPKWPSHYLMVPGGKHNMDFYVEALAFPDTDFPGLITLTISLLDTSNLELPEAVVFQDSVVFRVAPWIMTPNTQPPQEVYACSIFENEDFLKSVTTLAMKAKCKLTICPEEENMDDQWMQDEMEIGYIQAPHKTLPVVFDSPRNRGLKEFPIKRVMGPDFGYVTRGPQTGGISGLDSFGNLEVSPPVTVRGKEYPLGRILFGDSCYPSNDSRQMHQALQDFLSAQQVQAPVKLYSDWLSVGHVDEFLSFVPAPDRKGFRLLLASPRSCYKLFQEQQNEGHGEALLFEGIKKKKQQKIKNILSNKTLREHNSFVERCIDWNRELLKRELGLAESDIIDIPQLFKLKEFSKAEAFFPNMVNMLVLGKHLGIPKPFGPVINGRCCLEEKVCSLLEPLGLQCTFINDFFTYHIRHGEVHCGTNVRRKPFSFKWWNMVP

Structure (SMILES) | IC50 [nM]
COc1cc(C(=O)N2CC3CCC2[C@@H]3N)cn2nc(-c3cc4ccc(-c5ccc6c(c5)C(=O)NC6)nc4n3CC3CC3)c(C)c12 (stereo partly drawn) [Example 3, 6-(2-(6-((7R)-7-Amino-2-azabicyclo[2.2.1]heptane-2-carbonyl)-4-methoxy-3-methylpyrazolo[1,5-a]pyridin-2-yl)-1-(cyclopropylmethyl)-1H-pyrrolo[2,3-b]pyridin-6-yl)isoindolin-1-one] | 60
COc1cc(C(=O)N2CC3CCC2[C@@H]3N)cn2nc(-c3cc4ccc(C)nc4n3CC3CC3)c(C)c12 (stereo partly drawn) [Example 4, ((7R)-7-Amino-2-azabicyclo[2.2.1]heptan-2-yl)(2-(1-(cyclopropylmethyl)-6-methyl-1H-pyrrolo[2,3-b]pyridin-2-yl)-4-methoxy-3-methylpyrazolo[1,5-a]pyridin-6-yl)methanone] | 68
COc1cc(C(=O)N2CC3CCC2[C@@H]3N)cn2nc(-c3cc4ccc(-c5ccc6c(c5)CNC6=O)nc4n3CC3CC3)c(C)c12 (stereo partly drawn) [Example 5, 5-(2-(6-((7R)-7-Amino-2-azabicyclo[2.2.1]-heptane-2-carbonyl)-4-methoxy-3-methylpyrazolo[1,5-a]pyridin-2-yl)-1-(cyclopropylmethyl)-1H-pyrrolo[2,3-b]pyridin-6-yl)isoindolin-1-one] | 27
COc1cc(C(=O)N2CC3CCC2[C@@H]3N)cn2nc(-c3cc4ccc(C5CC5)nc4n3CC3CC3)c(C)c12 (stereo partly drawn) [Example 6, ((7R)-7-Amino-2-azabicyclo[2.2.1]heptan-2-yl)(2-(6-cyclopropyl-1-(cyclopropylmethyl)-1H-pyrrolo[2,3-b]pyridin-2-yl)-4-methoxy-3-methylpyrazolo[1,5-a]pyridin-6-yl)methanone] | 32
COc1cc(C(=O)N2CC3CCC2[C@@H]3N)cn2nc(-c3cc4ccc(-c5cnn(C(C)C)c5)nc4n3CC3CC3)c(C)c12 (stereo partly drawn) [Example 7, ((7R)-7-Amino-2-azabicyclo[2.2.1]heptan-2-yl)(2-(1-(cyclopropylmethyl)-6-(1-isopropyl-1H-pyrazol-4-yl)-1H-pyrrolo[2,3-b]pyridin-2-yl)-4-methoxy-3-methylpyrazolo[1,5-a]pyridin-6-yl)methanone] | 412
COc1cc(C(=O)N2CC3CCC2[C@@H]3N)cn2nc(-c3cc4ccc(-c5ccn6c(C)nnc6c5)nc4n3CC3CC3)c(C)c12 (stereo partly drawn) [Example 8, ((7R)-7-Amino-2-azabicyclo[2.2.1]heptan-2-yl)(2-(1-(cyclopropylmethyl)-6-(3-methyl-[1,2,4]triazolo[4,3-a]pyridin-7-yl)-1H-pyrrolo[2,3-b]pyridin-2-yl)-4-methoxy-3-methylpyrazolo[1,5-a]pyridin-6-yl)methanone] | 37
COc1cc(C(=O)N2CC3CCC2[C@@H]3N)cn2nc(-c3cc4ccc(-c5cccc(O)c5F)nc4n3CC3CC3)c(C)c12 (stereo partly drawn) [Example 9, ((7R)-7-Amino-2-azabicyclo[2.2.1]heptan-2-yl)(2-(1-(cyclopropylmethyl)-6-(2-fluoro-3-hydroxyphenyl)-1H-pyrrolo[2,3-b]pyridin-2-yl)-4-methoxy-3-methylpyrazolo[1,5-a]pyridin-6-yl)methanone] | 120
COc1cc(C(=O)N2CC3CCC2[C@@H]3N)cn2nc(-c3cc4ccc(-c5ccc(O)c(F)c5)nc4n3CC3CC3)c(C)c12 (stereo partly drawn) [Example 10, ((7R)-7-Amino-2-azabicyclo[2.2.1]heptan-2-yl)(2-(1-(cyclopropylmethyl)-6-(3-fluoro-4-hydroxyphenyl)-1H-pyrrolo[2,3-b]pyridin-2-yl)-4-methoxy-3-methylpyrazolo[1,5-a]pyridin-6-yl)methanone] | 159
COc1cc(C(=O)N2CC3CCC2[C@@H]3N)cn2nc(-c3cc4ccc(-c5ccc(OC(F)F)cc5)nc4n3CC3CC3)c(C)c12 (stereo partly drawn) [Example 11, ((7R)-7-Amino-2-azabicyclo[2.2.1]heptan-2-yl)(2-(1-(cyclopropylmethyl)-6-(4-(difluoromethoxy)phenyl)-1H-pyrrolo[2,3-b]pyridin-2-yl)-4-methoxy-3-methylpyrazolo[1,5-a]pyridin-6-yl)methanone] | 1370
COc1cc(C(=O)N2CC3CCC2[C@@H]3N)cn2nc(-c3cc4ccc(-c5ccc(OC(F)F)c(F)c5)nc4n3CC3CC3)c(C)c12 (stereo partly drawn) [Example 12, ((7R)-7-Amino-2-azabicyclo[2.2.1]heptan-2-yl)(2-(1-(cyclopropylmethyl)-6-(4-(difluoromethoxy)-3-fluorophenyl)-1H-pyrrolo[2,3-b]pyridin-2-yl)-4-methoxy-3-methylpyrazolo[1,5-a]pyridin-6-yl)methanone] | 2320
COc1cc(C(=O)N2CC3CCC2[C@@H]3N)cn2nc(-c3cc4ccc(N5CC(OC)C5)nc4n3CC3CC3)c(C)c12 (stereo partly drawn) [Example 13, ((7R)-7-Amino-2-azabicyclo[2.2.1]heptan-2-yl)(2-(1-(cyclopropylmethyl)-6-(3-methoxyazetidin-1-yl)-1H-pyrrolo[2,3-b]pyridin-2-yl)-4-methoxy-3-methylpyrazolo[1,5-a]pyridin-6-yl)methanone] | 163
COc1cc(C(=O)N2C[C@H](N)C[C@@H](F)C2)cn2nc(-c3cc4cccnc4n3CC3CC3)c(C)c12 [Example 14, ((3R,5R)-3-Amino-5-fluoropiperidin-1-yl)(2-(1-(cyclopropylmethyl)-1H-pyrrolo[2,3-b]pyridin-2-yl)-4-methoxy-3-methylpyrazolo[1,5-a]pyridin-6-yl)methanone] | 906
COc1cc(C(=O)N2C[C@H](N)C[C@@H](F)C2)cn2nc(-c3cc4ccc(-c5ccc6c(c5)C(=O)NC6)nc4n3CC3CC3)c(C)c12 [Example 16, 6-(2-(6-((3R,5R)-3-Amino-5-fluoropiperidine-1-carbonyl)-4-methoxy-3-methylpyrazolo[1,5-a]pyridin-2-yl)-1-(cyclopropylmethyl)-1H-pyrrolo[2,3-b]pyridin-6-yl)isoindolin-1-one] | 407
COc1cc(C(=O)N2C[C@H](N)C[C@@H](F)C2)cn2nc(-c3cc4ccc(C)nc4n3CC3CC3)c(C)c12 [Example 17, ((3R,5R)-3-Amino-5-fluoropiperidin-1-yl)(2-(1-(cyclopropylmethyl)-6-methyl-1H-pyrrolo[2,3-b]pyridin-2-yl)-4-methoxy-3-methylpyrazolo[1,5-a]pyridin-6-yl)-methanone] | 75
COc1cc(C(=O)N2C[C@H](N)C[C@@H](F)C2)cn2nc(-c3cc4ccc(C5CC5)nc4n3CC3CC3)c(C)c12 [Example 19, ((3R,5R)-3-Amino-5-fluoropiperidin-1-yl)(2-(6-cyclopropyl-1-(cyclopropylmethyl)-1H-pyrrolo[2,3-b]pyridin-2-yl)-4-methoxy-3-methylpyrazolo[1,5-a]pyridin-6-yl)methanone] | 168
COc1cc(C(=O)N2C[C@H](N)C[C@@H](F)C2)cn2nc(-c3cc4ccc(-c5ccc6c(c5)CNC6=O)nc4n3CC3CC3)c(C)c12 [Example 20, 5-(2-(6-((3R,5R)-3-Amino-5-fluoropiperidine-1-carbonyl)-4-methoxy-3-methylpyrazolo[l,5-a]pyridin-2-yl)-1-(cyclopropylmethyl)-1H-pyrrolo[2,3-b]pyridin-6-yl)isoindolin-1-one] | 116
COc1cc(C(=O)N2C[C@H](N)C[C@@H](F)C2)cn2nc(-c3cc4ccc(-c5ccn6c(C)nnc6c5)nc4n3CC3CC3)c(C)c12 [Example 21, ((3R,5R)-3-Amino-5-fluoropiperidin-1-yl)(2-(1-(cyclopropylmethyl)-6-(3-methyl-[1,2,4]triazolo[4,3-a]pyridin-7-yl)-1H-pyrrolo[2,3-b]pyridin-2-yl)-4-methoxy-3-methylpyrazolo[1,5-a]pyridin-6-yl)methanone] | 91
COc1cc(C(=O)N2CC3CCC2[C@@H]3N)cn2nc(-c3cc4ccccc4n3CC3CC3)c(C)c12 (stereo partly drawn) [Example 22, ((7R)-7-Amino-2-azabicyclo[2.2.1]heptan-2-yl)(2-(1-(cyclopropylmethyl)-1H-indol-2-yl)-4-methoxy-3-methylpyrazolo[1,5-a]pyridin-6-yl)methanone] | 2150
COc1cc(C(=O)N2CC3CCC2[C@@H]3N)cn2nc(-c3cc4ccc(-c5ccc6c(c5)C(=O)NC6)cc4n3CC3CC3)c(C)c12 (stereo partly drawn) [Example 23, 6-(2-(6-((7R)-7-Amino-2-azabicyclo[2.2.1]heptane-2-carbonyl)-4-methoxy-3-methylpyrazolo[1,5-a]pyridin-2-yl)-1-(cyclopropylmethyl)-1H-indol-6-yl)isoindolin-1-one] | 108
COc1cc(C(=O)N2CC3CCC2[C@@H]3N)cn2nc(-c3cc4ccc(-c5ccc6c(c5)CNC6=O)cc4n3CC3CC3)c(C)c12 (stereo partly drawn) [Example 24, 5-(2-(6-((7R)-7-Amino-2-azabicyclo[2.2.1]heptane-2-carbonyl)-4-methoxy-3-methylpyrazolo[1,5-a]pyridin-2-yl)-1-(cyclopropylmethyl)-1H-indol-6-yl)isoindolin-1-one] | 31
COc1cc(C(=O)N2CC3CCC2[C@@H]3N)cn2nc(-c3cc4ccc(-c5ccn6c(C)nnc6c5)cc4n3CC3CC3)c(C)c12 (stereo partly drawn) [Example 25, ((7R)-7-Amino-2-azabicyclo[2.2.1]heptan-2-yl)(2-(1-(cyclopropylmethyl)-6-(3-methyl-[1,2,4]triazolo[4,3-a]pyridin-7-yl)-1H-indol-2-yl)-4-methoxy-3-methylpyrazolo[1,5-a]pyridin-6-yl)methanone] | 17
COc1cc(C(=O)N2CC3CCC2[C@@H]3N)cn2nc(-c3cc4ccc(-c5ccc(OC(F)F)cc5)cc4n3CC3CC3)c(C)c12 (stereo partly drawn) [Example 26, ((7R)-7-Amino-2-azabicyclo[2.2.1]heptan-2-yl)(2-(1-(cyclopropylmethyl)-6-(4-(difluoromethoxy)phenyl)-1H-indol-2-yl)-4-methoxy-3-methylpyrazolo[1,5-a]pyridin-6-yl)methanone] | 449
COc1cc(C(=O)N2CC3CCC2[C@@H]3N)cn2nc(-c3cc4ccc(C)cc4n3CC3CC3)c(C)c12 (stereo partly drawn) [Example 27, ((7R)-7-Amino-2-azabicyclo[2.2.1]heptan-2-yl)(2-(1-(cyclopropylmethyl)-6-methyl-1H-indol-2-yl)-4-methoxy-3-methylpyrazolo[1,5-a]pyridin-6-yl)methanone] | 22
